Test results: patent US11572590B2, “Methods for evaluating tumor cell spheroids using 3D microfluidic cell culture device” (Dana-Farber Cancer Institute, Inc., priority 2017, dated 2023)
Like-named read-outs stand apart in the source and are kept apart here.

Legend:
Assay in all cases: SelectScreen Kinase Profiling, single point inhibition and IC50 for off-target kinases
Assay type in all cases: biochemical
[1] = biological target: off-target kinases (Homo sapiens, UniProt P10721); conditions: KIT, ZLYTE, ATP Km app
off-target kinases (Homo sapiens, UniProt P10721), sequence (P10721 26-976): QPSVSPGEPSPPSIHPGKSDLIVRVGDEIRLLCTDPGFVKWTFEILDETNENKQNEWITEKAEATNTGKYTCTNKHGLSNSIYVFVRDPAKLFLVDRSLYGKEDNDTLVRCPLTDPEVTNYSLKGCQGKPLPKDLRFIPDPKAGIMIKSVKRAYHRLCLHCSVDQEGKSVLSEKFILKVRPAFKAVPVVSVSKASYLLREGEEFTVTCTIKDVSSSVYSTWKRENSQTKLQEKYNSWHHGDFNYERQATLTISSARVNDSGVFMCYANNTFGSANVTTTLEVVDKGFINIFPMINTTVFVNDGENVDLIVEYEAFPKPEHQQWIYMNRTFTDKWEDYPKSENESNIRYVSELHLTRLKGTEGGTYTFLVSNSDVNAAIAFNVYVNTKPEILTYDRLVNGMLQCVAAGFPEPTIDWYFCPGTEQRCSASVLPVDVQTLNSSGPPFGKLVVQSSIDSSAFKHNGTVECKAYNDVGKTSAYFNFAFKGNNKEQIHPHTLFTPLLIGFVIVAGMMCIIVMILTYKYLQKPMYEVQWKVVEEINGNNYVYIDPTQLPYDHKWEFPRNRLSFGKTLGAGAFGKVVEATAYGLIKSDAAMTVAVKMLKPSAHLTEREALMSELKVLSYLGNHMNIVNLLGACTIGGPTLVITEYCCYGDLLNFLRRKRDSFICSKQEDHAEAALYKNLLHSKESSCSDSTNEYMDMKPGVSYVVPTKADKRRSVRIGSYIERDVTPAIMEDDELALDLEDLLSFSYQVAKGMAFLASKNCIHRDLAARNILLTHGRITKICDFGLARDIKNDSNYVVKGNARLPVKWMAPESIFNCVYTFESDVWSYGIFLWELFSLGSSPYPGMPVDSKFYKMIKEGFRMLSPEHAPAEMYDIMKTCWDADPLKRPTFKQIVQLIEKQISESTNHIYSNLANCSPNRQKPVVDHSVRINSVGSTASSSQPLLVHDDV

[2] = biological target: off-target kinases (Homo sapiens, UniProt Q9H0K1); conditions: SNF1LK2, ATP Km app, ZLYTE
off-target kinases (Homo sapiens, UniProt Q9H0K1), sequence (Q9H0K1 whole entry): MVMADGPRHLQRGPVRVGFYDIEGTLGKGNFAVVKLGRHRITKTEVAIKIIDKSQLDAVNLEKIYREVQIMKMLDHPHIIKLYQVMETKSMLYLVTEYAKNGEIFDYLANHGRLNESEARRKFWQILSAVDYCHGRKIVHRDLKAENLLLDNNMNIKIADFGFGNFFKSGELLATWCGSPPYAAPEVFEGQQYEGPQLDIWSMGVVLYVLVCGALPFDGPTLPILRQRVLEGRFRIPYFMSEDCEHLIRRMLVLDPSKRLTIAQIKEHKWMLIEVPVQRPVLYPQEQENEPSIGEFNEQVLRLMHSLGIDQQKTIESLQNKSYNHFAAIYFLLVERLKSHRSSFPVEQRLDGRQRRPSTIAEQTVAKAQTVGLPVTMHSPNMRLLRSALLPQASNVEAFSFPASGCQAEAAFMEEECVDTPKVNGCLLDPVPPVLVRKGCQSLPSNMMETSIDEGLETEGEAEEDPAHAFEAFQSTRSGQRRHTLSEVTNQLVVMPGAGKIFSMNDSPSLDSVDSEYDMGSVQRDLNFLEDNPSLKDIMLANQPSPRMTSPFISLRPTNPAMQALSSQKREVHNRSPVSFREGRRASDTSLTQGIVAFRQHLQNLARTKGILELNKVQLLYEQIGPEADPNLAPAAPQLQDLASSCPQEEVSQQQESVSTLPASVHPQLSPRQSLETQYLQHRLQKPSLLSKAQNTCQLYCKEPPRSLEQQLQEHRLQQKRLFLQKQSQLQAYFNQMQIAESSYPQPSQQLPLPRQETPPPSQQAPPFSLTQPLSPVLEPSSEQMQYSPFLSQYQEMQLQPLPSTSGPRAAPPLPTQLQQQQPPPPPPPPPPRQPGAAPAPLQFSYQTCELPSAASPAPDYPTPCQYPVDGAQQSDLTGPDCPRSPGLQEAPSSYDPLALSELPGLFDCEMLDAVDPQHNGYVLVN

[3] = biological target: T1, off-target kinases (Homo sapiens, UniProt Q12851); conditions: MAP4K2 (GCK), ZLYTE, ATP Km app
T1 sequence (Q12851 1-820): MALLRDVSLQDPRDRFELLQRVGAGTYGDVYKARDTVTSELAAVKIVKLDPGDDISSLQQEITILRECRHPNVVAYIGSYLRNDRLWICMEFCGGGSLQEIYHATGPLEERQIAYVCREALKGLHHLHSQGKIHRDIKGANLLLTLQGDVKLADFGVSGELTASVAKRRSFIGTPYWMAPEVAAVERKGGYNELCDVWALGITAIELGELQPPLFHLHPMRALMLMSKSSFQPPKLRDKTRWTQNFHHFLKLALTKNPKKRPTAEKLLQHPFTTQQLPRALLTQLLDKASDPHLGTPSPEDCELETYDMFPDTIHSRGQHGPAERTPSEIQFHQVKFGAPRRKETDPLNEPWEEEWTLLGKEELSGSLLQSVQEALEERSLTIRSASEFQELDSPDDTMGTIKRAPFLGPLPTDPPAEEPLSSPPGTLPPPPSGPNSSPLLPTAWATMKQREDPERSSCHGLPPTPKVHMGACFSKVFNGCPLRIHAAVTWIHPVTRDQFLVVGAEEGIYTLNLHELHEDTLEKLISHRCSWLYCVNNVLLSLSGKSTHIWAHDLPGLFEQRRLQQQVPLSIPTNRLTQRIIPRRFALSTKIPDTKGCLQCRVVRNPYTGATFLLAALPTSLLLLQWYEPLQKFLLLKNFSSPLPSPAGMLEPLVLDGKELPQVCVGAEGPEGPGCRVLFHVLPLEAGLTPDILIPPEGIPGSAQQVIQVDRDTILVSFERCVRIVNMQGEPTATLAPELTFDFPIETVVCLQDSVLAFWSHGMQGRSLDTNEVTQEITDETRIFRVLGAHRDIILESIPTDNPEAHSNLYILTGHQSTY

[4] = biological target: off-target kinases (Homo sapiens, UniProt P22612); conditions: PRKACG (PRKAC gamma), LanthaScreen Binding
off-target kinases (Homo sapiens, UniProt P22612), sequence (P22612 whole entry): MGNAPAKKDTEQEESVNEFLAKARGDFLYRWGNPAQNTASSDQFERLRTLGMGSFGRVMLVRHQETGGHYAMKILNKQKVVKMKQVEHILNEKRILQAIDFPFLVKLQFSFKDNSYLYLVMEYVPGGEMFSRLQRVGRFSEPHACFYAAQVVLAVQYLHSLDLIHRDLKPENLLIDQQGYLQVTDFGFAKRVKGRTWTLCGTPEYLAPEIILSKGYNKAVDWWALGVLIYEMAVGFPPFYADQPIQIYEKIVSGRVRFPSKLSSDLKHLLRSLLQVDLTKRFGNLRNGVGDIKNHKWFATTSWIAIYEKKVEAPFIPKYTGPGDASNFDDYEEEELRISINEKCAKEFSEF

[5] = biological target: off-target kinases (Homo sapiens, UniProt Q9P286); conditions: PAK7 (KIAA1264), ATP Km app, ZLYTE
off-target kinases (Homo sapiens, UniProt Q9P286), sequence (Q9P286 whole entry): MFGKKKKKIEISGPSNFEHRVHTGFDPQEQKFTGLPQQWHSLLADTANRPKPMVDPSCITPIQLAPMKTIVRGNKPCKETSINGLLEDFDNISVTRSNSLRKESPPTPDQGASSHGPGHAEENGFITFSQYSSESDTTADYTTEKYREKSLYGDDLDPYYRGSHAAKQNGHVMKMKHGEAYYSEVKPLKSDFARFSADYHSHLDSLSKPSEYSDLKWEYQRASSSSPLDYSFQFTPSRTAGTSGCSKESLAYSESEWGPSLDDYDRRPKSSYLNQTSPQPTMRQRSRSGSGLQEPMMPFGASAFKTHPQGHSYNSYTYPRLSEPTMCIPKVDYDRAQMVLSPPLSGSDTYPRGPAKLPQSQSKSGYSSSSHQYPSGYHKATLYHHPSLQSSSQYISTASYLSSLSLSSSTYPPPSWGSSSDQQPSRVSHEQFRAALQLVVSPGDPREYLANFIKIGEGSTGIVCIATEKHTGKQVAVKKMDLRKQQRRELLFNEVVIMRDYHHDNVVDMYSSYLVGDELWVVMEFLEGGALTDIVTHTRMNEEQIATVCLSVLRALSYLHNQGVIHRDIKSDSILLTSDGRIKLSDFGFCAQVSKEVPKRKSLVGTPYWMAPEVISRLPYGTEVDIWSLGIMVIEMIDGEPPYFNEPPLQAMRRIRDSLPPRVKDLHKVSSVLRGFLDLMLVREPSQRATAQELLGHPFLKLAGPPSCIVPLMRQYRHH

[6] = biological target: off-target kinases (Homo sapiens, UniProt Q15746); conditions: MYLK (MLCK), LanthaScreen Binding
off-target kinases (Homo sapiens, UniProt Q15746), sequence (Q15746 whole entry): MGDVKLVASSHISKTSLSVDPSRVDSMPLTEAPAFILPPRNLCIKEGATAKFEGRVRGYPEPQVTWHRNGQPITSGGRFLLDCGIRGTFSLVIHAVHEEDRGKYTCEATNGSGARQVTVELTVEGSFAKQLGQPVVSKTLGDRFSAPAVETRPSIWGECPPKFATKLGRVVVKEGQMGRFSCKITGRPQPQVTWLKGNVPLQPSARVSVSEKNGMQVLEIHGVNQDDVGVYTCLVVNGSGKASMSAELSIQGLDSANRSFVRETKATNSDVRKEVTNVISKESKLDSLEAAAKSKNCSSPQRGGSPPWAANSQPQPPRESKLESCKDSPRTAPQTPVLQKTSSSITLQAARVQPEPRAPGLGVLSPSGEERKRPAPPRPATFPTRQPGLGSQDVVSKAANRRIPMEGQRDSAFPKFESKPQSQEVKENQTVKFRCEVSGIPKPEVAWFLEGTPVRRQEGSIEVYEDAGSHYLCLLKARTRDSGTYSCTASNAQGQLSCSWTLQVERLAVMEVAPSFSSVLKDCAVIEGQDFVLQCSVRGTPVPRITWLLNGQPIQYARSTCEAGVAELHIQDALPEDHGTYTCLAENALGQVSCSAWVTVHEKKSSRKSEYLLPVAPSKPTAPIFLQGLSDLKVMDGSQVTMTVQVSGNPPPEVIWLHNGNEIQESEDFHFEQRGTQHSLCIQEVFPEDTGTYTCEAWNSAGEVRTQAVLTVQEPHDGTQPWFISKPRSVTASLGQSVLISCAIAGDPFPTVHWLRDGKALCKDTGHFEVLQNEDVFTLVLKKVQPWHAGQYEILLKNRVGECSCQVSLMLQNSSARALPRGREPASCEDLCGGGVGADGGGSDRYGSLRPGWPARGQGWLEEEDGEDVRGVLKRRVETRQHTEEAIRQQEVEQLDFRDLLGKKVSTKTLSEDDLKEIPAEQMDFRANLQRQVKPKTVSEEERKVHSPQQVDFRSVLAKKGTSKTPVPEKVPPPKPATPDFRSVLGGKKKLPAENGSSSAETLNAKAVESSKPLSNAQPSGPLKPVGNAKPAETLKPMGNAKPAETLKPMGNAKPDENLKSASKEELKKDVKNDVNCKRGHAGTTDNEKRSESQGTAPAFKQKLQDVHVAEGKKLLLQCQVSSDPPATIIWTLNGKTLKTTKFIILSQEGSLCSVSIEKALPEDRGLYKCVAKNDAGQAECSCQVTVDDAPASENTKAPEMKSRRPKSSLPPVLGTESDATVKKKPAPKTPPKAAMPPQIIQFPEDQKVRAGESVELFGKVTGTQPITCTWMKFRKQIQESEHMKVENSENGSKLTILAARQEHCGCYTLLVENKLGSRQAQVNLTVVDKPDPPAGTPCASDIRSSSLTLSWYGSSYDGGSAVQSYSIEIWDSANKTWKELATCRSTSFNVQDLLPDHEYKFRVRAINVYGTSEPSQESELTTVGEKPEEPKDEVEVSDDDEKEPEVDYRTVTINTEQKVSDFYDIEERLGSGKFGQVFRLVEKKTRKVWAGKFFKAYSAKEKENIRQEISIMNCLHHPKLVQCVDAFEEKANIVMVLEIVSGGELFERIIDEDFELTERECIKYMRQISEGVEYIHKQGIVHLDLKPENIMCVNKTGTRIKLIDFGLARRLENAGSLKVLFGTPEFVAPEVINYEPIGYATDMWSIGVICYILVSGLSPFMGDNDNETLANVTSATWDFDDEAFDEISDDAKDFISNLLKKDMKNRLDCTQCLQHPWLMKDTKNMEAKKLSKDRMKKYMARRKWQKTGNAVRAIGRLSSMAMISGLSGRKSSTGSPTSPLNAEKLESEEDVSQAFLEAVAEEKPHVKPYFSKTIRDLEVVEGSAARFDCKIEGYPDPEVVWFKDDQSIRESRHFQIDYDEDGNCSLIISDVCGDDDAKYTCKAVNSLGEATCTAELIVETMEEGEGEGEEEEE

[7] = biological target: T2, off-target kinases (Homo sapiens, UniProt O14965); conditions: AURKA (Aurora A), ATP Km app, ZLYTE
T2 sequence (O14965 1-403): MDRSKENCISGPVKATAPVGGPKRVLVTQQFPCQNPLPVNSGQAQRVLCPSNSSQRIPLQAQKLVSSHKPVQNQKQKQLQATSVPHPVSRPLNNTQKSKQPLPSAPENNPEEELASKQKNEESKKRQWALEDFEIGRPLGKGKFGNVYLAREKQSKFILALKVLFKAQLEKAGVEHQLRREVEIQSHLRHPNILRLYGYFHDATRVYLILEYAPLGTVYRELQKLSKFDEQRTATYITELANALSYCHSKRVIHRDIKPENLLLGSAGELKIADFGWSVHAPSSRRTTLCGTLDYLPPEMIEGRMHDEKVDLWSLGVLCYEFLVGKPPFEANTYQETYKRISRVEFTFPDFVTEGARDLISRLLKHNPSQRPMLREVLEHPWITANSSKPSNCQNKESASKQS

## N#Cc1cc(-c2ncnc(Nc3ccc(N4CCN(C5COC5)CC4)cc3)n2)ccc1OC1CCOCC1 [Compound 1, 5-(4-((4-(4-(oxetan-3-yl)piperazin-1-yl)phenyl)amino)-1,3,5-triazin-2-yl)-2-((tetrahydro-2H-pyran-4-yl)oxy)benzonitrile]
[1]; read-out: % Inhibition 1
  inhibition: 1%
[1]; read-out: % Inhibition 2
  inhibition: 5%
[1]; read-out: % Inhibition Avg
  inhibition: 3%
[2]; read-out: % Inhibition 1
  inhibition: 88%
[2]; read-out: % Inhibition 2
  inhibition: 88%
[2]; read-out: % Inhibition Avg
  inhibition: 88%
[3]; read-out: % Inhibition 1
  inhibition: 6%
[3]; read-out: % Inhibition 2
  inhibition: -2%
[3]; read-out: % Inhibition Avg
  inhibition: 2%
[4]; read-out: % Inhibition 1
  inhibition: 28%
[4]; read-out: % Inhibition 2
  inhibition: 19%
[4]; read-out: % Inhibition Avg
  inhibition: 24%
[5]; read-out: % Inhibition 1
  inhibition: 77%
[5]; read-out: % Inhibition 2
  inhibition: 79%
[5]; read-out: % Inhibition Avg
  inhibition: 78%
[6]; read-out: % Inhibition 1
  inhibition: 5%
[6]; read-out: % Inhibition 2
  inhibition: 3%
[6]; read-out: % Inhibition Avg
  inhibition: 4%
[7]; read-out: % Inhibition 1
  inhibition: 91%
[7]; read-out: % Inhibition 2
  inhibition: 86%
[7]; read-out: % Inhibition Avg
  inhibition: 89%
